pIC50: −log10 of the molar value.
Legend:
[1] = target: Dual specificity tyrosine-phosphorylation-regulated kinase 1A (Homo sapiens) (UniProt Q13627); assay: Inhibition of DYRK1A at 5 uM
[2] = target: T1, Serine/threonine-protein kinase Sgk1 (Homo sapiens) (UniProt O00141); assay: Inhibition of SGK1 at 1 uM
T1 sequence (whole entry): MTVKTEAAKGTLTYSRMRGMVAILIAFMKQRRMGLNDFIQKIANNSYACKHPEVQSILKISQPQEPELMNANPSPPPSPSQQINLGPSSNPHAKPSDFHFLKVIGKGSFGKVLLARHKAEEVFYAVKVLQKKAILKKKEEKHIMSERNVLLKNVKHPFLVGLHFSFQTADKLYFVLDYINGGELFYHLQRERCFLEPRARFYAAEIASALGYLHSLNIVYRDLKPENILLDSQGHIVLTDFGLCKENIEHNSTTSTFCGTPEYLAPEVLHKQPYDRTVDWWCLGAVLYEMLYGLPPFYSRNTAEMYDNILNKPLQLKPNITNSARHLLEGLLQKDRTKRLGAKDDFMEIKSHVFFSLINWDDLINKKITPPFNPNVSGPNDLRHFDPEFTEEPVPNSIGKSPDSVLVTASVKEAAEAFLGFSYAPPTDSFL

[3] = target: Mast/stem cell growth factor receptor Kit (Homo sapiens) (UniProt P10721); assay: Inhibition of KIT at 1 uM
[4] = target: Focal adhesion kinase 1 (Homo sapiens) (UniProt Q05397); assay: Inhibition of FAK at 1 uM
[5] = target: RAC-alpha serine/threonine-protein kinase (Homo sapiens) (UniProt P31749); assay: Inhibition of AKT1 at 1 uM
[6] = target: Tyrosine-protein kinase JAK2 (Homo sapiens) (UniProt O60674); assay: Inhibition of JAK2 at 1 uM
[7] = target: Dual specificity mitogen-activated protein kinase kinase 1 (Homo sapiens) (UniProt Q02750); assay: Inhibition of MEK1 at 1 uM
[8] = Inhibition of PDGFR at 5 uM
CYP2C19 = CYP2C19 (Homo sapiens, UniProt P33261); assay: Inhibition of CYP2C19 at 10 uM; format: ADME
[9] = target: Mitogen-activated protein kinase 8 (Homo sapiens) (UniProt P45983); assay: Inhibition of JNK1 at 5 uM
CYP3A4 = CYP3A4 (Homo sapiens, UniProt P08684); assay: Inhibition of CYP3A4 at 10 uM; format: ADME
[10] = target: Epidermal growth factor receptor (Homo sapiens) (UniProt P00533); assay: Inhibition of EGFR at 5 uM
[11] = target: Fibroblast growth factor receptor 1 (Homo sapiens) (UniProt P11362); assay: Inhibition of FGFR1 at 1 uM
[12] = target: Hepatocyte growth factor receptor (Homo sapiens) (UniProt P08581); assay: Inhibition of MET at 1 uM
[13] = Stability in human liver microsomes at 1 uM incubated for 15 mins; format: ADME, Microsome; conditions: read-out: Stability
[14] = target: RAC-alpha serine/threonine-protein kinase (Homo sapiens) (UniProt P31749); assay: Inhibition of AKT1 at 5 uM
[15] = target: Casein kinase I isoform alpha (Homo sapiens) (UniProt P48729); assay: Inhibition of CK1alpha1 at 5 uM
[16] = target: Serine/threonine-protein kinase pim-2 (Homo sapiens) (UniProt Q9P1W9); assay: Inhibition of PIM2 at 1 uM
[17] = target: Insulin receptor (Homo sapiens) (UniProt P06213); assay: Inhibition of INSR at 1 uM
[18] = Stability in mouse liver microsomes at 1 uM incubated for 15 mins; format: ADME, Microsome; conditions: read-out: Stability
[19] = target: T2, NUAK family SNF1-like kinase 1 (Homo sapiens) (UniProt O60285); assay: Inhibition of ARK5 at 5 uM
T2 sequence (whole entry): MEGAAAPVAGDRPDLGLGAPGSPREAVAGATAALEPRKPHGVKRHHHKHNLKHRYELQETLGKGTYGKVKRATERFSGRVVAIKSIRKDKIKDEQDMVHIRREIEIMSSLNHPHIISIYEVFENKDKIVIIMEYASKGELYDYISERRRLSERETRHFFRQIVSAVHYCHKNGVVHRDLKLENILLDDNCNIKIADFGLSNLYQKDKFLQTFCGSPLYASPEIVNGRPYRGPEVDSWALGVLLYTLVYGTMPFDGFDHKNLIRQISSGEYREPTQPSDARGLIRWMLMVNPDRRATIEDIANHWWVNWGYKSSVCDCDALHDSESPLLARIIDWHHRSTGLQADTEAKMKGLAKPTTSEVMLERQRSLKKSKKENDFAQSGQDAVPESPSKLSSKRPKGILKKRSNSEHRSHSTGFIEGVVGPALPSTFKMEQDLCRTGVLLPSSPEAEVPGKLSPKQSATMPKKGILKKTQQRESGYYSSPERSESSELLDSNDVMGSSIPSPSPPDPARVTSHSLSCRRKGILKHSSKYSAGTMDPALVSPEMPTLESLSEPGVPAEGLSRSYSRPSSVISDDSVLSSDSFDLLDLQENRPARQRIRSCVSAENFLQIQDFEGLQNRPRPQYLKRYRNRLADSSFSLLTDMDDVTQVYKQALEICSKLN

[20] = target: Ribosomal protein S6 kinase alpha-1 (Homo sapiens) (UniProt Q15418); assay: Inhibition of RPS6KA1 at 5 uM
[21] = target: Receptor-type tyrosine-protein kinase FLT3 (Homo sapiens) (UniProt P36888); assay: Inhibition of FLT3 at 1 uM
[22] = target: Hepatocyte growth factor receptor (Homo sapiens) (UniProt P08581); assay: Inhibition of MET at 5 uM
[23] = target: PI3-kinase p110-alpha/p85-alpha (Homo sapiens, UniProt P42336); assay: Inhibition of human PI3Kalpha (p110alpha/p85alpha) by ADP accumulation based HTRF assay; format: protein-complex assay
[24] = target: Casein kinase I isoform alpha (Homo sapiens) (UniProt P48729); assay: Inhibition of CK1alpha1 at 1 uM
[25] = target: Receptor-type tyrosine-protein kinase FLT3 (Homo sapiens) (UniProt P36888); assay: Inhibition of FLT3 at 5 uM
[26] = target: Mast/stem cell growth factor receptor Kit (Homo sapiens) (UniProt P10721); assay: Inhibition of KIT at 5 uM
[27] = target: Insulin-like growth factor 1 receptor (Homo sapiens) (UniProt P08069); assay: Inhibition of IGF1R at 5 uM
[28] = target: Serine/threonine-protein kinase PAK 1 (Homo sapiens) (UniProt Q13153); assay: Inhibition of PAK1 at 5 uM
[29] = target: Phosphatidylinositol 4,5-bisphosphate 3-kinase catalytic subunit alpha isoform (Homo sapiens, UniProt P42336); assay: Inhibition of PI3Kalpha in human U2OS cells assessed as inhibition of AKT Ser 473 phosphorylation by Western blot; format: cell-based
[30] = target: Serine/threonine-protein kinase pim-1 (Homo sapiens) (UniProt P11309); assay: Inhibition of PIM1 at 5 uM
CYP2D6 = CYP2D6 (Homo sapiens, UniProt P10635); assay: Inhibition of CYP2D6 at 10 uM; format: ADME
CYP2C9 = CYP2C9 (Homo sapiens, UniProt P11712); assay: Inhibition of CYP2C9 at 10 uM; format: ADME
[31] = target: Epidermal growth factor receptor (Homo sapiens) (UniProt P00533); assay: Inhibition of EGFR at 1 uM
[32] = system: Serine/threonine-protein kinase B-raf (Homo sapiens), P15056 [V600E]; assay: Inhibition of BRAF V600E mutant at 1 uM

Epidermal growth factor receptor (Homo sapiens), sequence (P00533 whole entry): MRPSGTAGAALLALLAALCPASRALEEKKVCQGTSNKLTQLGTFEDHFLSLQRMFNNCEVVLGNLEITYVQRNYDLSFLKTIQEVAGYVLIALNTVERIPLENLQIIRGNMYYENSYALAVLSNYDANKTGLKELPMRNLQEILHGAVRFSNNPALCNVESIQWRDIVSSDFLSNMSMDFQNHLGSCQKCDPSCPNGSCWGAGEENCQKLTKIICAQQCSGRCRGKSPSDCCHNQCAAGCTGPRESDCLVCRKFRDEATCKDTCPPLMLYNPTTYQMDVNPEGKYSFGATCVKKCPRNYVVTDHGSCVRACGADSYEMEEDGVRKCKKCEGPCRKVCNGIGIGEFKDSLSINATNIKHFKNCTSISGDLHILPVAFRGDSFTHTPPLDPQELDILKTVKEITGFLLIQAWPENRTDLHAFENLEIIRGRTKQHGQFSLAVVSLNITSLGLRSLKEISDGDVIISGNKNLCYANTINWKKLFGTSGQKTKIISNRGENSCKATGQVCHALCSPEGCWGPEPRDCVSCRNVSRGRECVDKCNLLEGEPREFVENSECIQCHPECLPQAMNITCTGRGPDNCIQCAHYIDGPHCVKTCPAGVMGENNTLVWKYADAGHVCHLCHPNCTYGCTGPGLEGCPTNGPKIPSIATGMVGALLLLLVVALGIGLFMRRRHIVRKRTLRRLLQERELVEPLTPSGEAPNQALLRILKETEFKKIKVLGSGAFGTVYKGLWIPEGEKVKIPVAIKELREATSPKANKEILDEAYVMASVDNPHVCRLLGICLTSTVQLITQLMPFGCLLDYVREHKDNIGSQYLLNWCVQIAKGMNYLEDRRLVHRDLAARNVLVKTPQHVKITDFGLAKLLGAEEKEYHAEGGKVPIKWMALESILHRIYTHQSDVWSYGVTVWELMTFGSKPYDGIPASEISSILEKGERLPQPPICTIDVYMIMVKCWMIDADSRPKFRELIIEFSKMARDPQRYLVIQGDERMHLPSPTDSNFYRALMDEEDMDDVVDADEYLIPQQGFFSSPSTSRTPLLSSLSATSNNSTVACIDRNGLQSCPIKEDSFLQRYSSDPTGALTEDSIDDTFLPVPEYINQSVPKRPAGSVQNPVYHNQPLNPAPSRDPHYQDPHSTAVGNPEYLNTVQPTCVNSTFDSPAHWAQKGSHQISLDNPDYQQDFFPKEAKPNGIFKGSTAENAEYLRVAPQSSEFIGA
Mast/stem cell growth factor receptor Kit (Homo sapiens), sequence (P10721 whole entry): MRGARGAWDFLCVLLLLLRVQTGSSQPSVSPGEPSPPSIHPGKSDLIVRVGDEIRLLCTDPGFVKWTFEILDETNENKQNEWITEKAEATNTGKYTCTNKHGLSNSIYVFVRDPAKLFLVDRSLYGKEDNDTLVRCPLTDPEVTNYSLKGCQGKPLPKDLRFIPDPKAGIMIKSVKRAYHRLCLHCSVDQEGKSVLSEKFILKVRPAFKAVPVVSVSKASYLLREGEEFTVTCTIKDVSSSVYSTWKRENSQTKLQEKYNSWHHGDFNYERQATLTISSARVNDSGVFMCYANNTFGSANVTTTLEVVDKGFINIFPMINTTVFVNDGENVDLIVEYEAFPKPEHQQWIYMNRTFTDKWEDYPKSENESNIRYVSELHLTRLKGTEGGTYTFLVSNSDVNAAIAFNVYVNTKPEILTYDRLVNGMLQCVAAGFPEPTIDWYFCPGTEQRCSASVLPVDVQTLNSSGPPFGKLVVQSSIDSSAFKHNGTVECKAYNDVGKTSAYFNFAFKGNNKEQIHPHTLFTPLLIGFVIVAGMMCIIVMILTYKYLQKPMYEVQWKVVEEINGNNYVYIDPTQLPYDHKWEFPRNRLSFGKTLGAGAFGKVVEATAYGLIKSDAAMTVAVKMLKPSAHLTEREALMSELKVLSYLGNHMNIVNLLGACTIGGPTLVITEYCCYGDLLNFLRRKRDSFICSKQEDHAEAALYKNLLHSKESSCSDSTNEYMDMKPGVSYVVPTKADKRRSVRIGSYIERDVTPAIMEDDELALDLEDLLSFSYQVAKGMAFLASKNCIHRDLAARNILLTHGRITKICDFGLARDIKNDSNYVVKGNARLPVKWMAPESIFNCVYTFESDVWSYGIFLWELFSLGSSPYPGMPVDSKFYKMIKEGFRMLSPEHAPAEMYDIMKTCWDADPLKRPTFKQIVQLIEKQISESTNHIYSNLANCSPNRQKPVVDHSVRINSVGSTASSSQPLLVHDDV
Receptor-type tyrosine-protein kinase FLT3 (Homo sapiens), sequence (P36888 whole entry): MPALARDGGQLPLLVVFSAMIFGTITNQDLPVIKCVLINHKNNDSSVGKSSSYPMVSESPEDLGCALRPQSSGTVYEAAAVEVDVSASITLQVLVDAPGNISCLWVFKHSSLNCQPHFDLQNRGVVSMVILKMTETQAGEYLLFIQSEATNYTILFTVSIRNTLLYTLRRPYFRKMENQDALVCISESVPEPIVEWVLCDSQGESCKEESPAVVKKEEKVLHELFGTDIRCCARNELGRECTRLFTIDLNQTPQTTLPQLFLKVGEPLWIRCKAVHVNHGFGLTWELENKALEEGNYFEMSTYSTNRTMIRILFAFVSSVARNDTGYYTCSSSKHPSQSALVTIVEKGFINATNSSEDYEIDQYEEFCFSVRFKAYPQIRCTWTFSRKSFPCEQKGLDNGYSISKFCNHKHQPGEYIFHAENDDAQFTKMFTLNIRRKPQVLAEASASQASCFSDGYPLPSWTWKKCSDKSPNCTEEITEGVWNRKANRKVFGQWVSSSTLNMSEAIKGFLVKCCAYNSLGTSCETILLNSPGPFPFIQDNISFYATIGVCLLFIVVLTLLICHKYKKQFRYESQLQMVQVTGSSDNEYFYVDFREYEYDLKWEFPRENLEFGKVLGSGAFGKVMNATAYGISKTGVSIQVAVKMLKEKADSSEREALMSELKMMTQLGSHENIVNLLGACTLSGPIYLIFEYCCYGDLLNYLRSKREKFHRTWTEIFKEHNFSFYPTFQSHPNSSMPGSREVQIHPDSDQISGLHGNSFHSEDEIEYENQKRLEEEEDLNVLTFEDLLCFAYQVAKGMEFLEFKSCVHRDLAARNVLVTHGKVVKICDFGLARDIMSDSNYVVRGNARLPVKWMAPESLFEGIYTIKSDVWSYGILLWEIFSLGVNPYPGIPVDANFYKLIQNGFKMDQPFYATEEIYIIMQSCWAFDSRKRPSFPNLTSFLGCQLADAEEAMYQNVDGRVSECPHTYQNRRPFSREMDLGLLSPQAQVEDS
Casein kinase I isoform alpha (Homo sapiens), sequence (P48729 2-337 limits assumed): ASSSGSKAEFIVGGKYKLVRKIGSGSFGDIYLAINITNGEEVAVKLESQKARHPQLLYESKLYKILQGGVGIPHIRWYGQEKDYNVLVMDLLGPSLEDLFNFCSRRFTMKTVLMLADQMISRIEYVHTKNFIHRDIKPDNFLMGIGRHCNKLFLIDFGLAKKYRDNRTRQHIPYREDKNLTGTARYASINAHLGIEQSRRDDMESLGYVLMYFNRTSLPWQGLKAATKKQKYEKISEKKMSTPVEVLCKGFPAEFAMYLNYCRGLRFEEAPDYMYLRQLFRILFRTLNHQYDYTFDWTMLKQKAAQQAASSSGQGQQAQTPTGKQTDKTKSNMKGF
RAC-alpha serine/threonine-protein kinase (Homo sapiens), sequence (P31749 whole entry, canonical isoform): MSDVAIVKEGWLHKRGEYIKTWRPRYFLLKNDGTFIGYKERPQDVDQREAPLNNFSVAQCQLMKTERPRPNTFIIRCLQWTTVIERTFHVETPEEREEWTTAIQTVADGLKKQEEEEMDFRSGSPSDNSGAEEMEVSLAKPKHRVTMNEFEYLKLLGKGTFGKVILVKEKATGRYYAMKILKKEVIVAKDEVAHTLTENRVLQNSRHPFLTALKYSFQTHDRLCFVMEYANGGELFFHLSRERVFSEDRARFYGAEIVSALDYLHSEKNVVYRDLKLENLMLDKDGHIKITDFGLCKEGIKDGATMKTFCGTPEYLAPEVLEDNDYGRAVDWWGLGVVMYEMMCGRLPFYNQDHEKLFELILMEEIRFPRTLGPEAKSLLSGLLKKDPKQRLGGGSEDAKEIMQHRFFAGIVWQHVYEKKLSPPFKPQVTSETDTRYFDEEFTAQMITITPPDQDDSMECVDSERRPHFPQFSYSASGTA
CYP3A4, sequence (P08684 whole entry): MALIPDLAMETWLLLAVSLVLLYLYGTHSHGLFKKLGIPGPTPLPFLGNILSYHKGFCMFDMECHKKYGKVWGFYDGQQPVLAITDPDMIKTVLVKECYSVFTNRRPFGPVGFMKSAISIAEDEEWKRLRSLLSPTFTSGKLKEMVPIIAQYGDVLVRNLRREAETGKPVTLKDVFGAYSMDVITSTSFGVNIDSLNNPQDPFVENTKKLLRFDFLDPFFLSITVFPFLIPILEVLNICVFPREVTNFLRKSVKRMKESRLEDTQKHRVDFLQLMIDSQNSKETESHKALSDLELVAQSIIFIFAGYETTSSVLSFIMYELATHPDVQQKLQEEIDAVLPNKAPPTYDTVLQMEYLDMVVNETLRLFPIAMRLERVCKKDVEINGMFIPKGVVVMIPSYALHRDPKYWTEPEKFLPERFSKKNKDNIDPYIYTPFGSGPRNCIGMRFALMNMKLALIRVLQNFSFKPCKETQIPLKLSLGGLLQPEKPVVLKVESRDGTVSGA
Dual specificity mitogen-activated protein kinase kinase 1 (Homo sapiens), sequence (Q02750 whole entry): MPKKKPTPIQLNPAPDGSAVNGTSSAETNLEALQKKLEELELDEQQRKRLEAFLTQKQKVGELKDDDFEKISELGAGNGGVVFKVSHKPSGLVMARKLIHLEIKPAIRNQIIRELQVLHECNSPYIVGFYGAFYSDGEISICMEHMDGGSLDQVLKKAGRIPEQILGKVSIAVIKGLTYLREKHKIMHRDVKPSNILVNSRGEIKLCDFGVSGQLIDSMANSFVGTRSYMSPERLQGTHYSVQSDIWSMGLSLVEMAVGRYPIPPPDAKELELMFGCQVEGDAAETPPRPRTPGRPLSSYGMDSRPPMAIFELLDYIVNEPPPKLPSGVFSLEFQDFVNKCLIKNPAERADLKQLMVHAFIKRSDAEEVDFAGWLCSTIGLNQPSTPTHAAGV

## CS(=O)(=O)N1CCN(Cc2nc3c(N4CCOCC4)nc(-c4cnc(N)nc4)cn3c2Br)CC1
[1]
  inhibition: < 30%
[2]
  inhibition: < 30%
[3]
  inhibition: < 30%
[4]
  inhibition: < 30%
[5]
  inhibition: < 30%
[6]
  inhibition: < 30%
[7]
  inhibition: < 30%
[8]
  inhibition: < 30%
CYP2C19
  inhibition at 10 µM: < 30%
[9]
  inhibition: < 30%
CYP3A4
  inhibition at 10 µM: < 30%
[10]
  inhibition: < 30%
[11]
  inhibition: < 30%
[12]
  inhibition: < 30%
[13]
  remaining at 0.25 h, 1 µM: 70%
[14]
  inhibition: < 30%
[15]
  inhibition: < 30%
[16]
  inhibition: < 30%
[17]
  inhibition: < 30%
[18]
  remaining at 0.25 h, 1 µM: 43%
[19]
  inhibition: < 30%
[20]
  inhibition: < 30%
[21]
  inhibition: < 30%
[22]
  inhibition: < 30%
[23]
  pIC50: 9.15
[24]
  inhibition: < 30%
[25]
  inhibition: < 30%
[26]
  inhibition: < 30%
[27]
  inhibition: < 30%
[28]
  inhibition: < 30%
[29]
  pIC50: 8.09
[30]
  inhibition: < 30%
CYP2D6
  inhibition at 10 µM: < 30%
CYP2C9
  inhibition at 10 µM: < 30%
[31]
  inhibition: < 30%
[32]
  inhibition: < 30%

From ChEMBL document CHEMBL2086238, “Identification of ETP-46321, a potent and orally bioavailable PI3K α, δ inhibitor” (Bioorg Med Chem Lett, 2012)
